From patent publication US20040265323A1, “Compositions comprising pathogen elicited epithelial chemoattractant (eicosanoid hepoxilin A3), inhibitors thereof and methods of use thereof” (priority 2003, published 2004)
Entries after “also recorded” stand apart in the source; their conditions may differ.

Columns and labels:
[1] = test system: PEEC/hepoxilin A3 secretion; assay: Apical PEEC/hepoxilin A3 release from S. typhimurium infected T84 cell monolayers; format: cell-based, human; conditions: S. typhimurium infected T84 with 12-LO inhibitor
Excerpt: T84 cell monolayers were infected with S. typhimurium in the absence or presence of the 12-LO enzyme inhibitor and apical supernatants were examined for PEEC bioactivity. […] Moreover, since it had been previously shown that S. typhimurium via its effector SipA initiates an ARF6-dependent lipid-signaling cascade that directs the activation of PKC and release of PEEC, it was further examined if blocking PKC activity (which would occur upstream of 12-LO) also corresponds with a reduction in hepoxilin A3 bioactivity and release, as one would predict.

[2] = test system: hepoxilin A3 secretion; assay: Hepoxilin A3 release from P. aeruginosa infected A549 cell monolayers; format: cell-based, human; conditions: A549 treated with inhibitor prior to P. aeruginosa infection; listed as 12-LO inhibitor
Excerpt: It was further determined whether similar hepoxilin A3 recruitment of PMN by apically attached pathogens might occur at other mucosal surfaces. Pseudomonas aeruginosa is the most prominent bacterial spp. present during chronic infection in cystic fibrosis and chronic obstructive pulmonary disease patients and is accompanied by severe inflammation, including the emigration of PMN to the airway lumen (Pizurki et al., 2000; Jahn et al., 2000; Weiss, S. 1989). As a model for the airway epithelium the A549 cell line was used. This cell line is capable of forming a polarized barrier, and is widely employed as a model for the airway epithelial surface (Smart and Casale, 1994). […] Finally, the secretion of hepoxlin A3 in vitro was quantified using this A549 model system. For these experiments, A549 lung epithelial cells (ATTC) were grown in F12K media (Invitrogen) with 10% FBS, and maintained in culture similar to the T84 cell line. The wild type P. aeruginosa (PAO1) was used for infection of A549 after overnight aerobic growth (Luria broth) at 37° C.
The apical compartment of A549 cell monolayers treated for 90 minutes with P. aeruginosa had approximately 210 pmoles in the apical compartment and nearly 130 pmoles in the basolateral compartment. […]

[3] = test system: S. typhimurium-infected human intestinal xenografts; assay: Histopathology of human intestinal xenografts infected with S. typhimurium; format: in vivo; conditions: 1 μM in 100 μl intralumenally 2 hours prior to infection; xenografts in SCID mice; 15 hours after infection
Method: Further, the effect of baicalein on S. typhimurium pathology in human intestinal xenografts was determined (Savidge et al., 1995) (FIG. 7). The human fetal intestinal xenograft model used in the present study has been previously described in detail (Savidge et al., 1995). Briefly, human fetal small intestine (n=3, gestational age 10-14weeks) was transplanted subcutaneously into C.B-17 severe-combined immunodeficient (SCID) mice. Xenografts were allowed to develop for a period between 10-20 weeks before use at which time the epithelium and underlying mucosa is fully differentiated (Savidge et al., 1995). Xenografts were infected with approximately 5×10^7 wild type S. typhimurium SL1344 in sterile HBSS(+) buffer in a 100 μl volume injected intralumenally by subcutaneous injection. Xenografts receiving the drug treatment were injected with 1 μM baicalein in a 100 μl volume 2 hours prior to infection with S. typhimurium (in the continued presence of 1 μM baicalein). Xenograft tissue was removed 15 hours after infection, extensively washed, and snap frozen in OCT compound.
A severe vascular disturbance was also noted. These outcomes are all consistent with the clinical manifestations observed from S. typhimurium infection in humans.

[4] = test system: intestinal inflammation (rectal prolapse); assay: Intestinal inflammation in SCID mice induced by CD45RBHI T cell transfer; format: in vivo
Method: The therapeutic benefits of baicalein on subsiding intestinal inflammation, which was induced in SCID mice by i.v. injection of CD4+ CD45RB HI T cells, was examined. For these experiments, spleens were collected from 6-12 week old donor mice (BALB/c) and splenocytes were isolated by mechanical homogenization of whole spleens. The CD4+ T cells were selected by positive selection. In brief, a cell suspension of pooled splenocytes from 4-5 donor mice was incubated with anti-CD4 (L3T4) antibody coated magnetic beads (DYNABEADS: Catalog # 114.05, Dynal, Lake Success, N.Y.) for 20-30 minutes at 4° C. and separated by magnetic cell sorting with a Dynal Magnetic Particle Concentrator (MPC). Cells were removed from the cell-bead complex with Dynal DETACHaBEAD, and isolated from beads using a Dynal MPC. The resulting CD4+ enriched population was >90% pure. The cell suspension was then incubated with Fc block (anti-CD32, PharMingen, 01241A) and labeled with anti-CD4-FITC (PharMingen, 9004D) and anti-CD45RB-PE (PharMingen, 01145A), for 30 minutes at 4° C. washed, and sorted using a FACSTAR (Becton Dickinson, San Jose, Calif.) cell sorter. Double positive cells (CD4+/CD45Rb+) were collected, selecting the cells that expressed high levels of CD45Rb (brightest 45%). The collected cell population was >90% pure and viable. Cells were then washed in cold […] buffered saline (PBS Sigma D8662) and resuspended in PBS. Balb/c SCID mice, aged 6-12 weeks, were injected intravenously with CD45RBHI Tcells in the tail vein.
Ten weeks post CD45RBHI T cell transfer, roughly 30% of SCID mice developed intestinal inflammation, characterized by mucin depletion, goblet cell loss, epithelial hyperplasia and finally rectal prolapse (FIG. 8). These mice were divided equally among treatment groups The first treatment group received buffer control alone (sterile Hanks Balanced Salts Solution (“HBSS”)) and the second and the third treatment groups received low (2 μM) and high (200 μM) doses of baicalein i.v., respectively, every other day along with a vehicle control. […]

[5] = test system: MRP-2; assay: MRP-2 expression in large bowel of CD45Rbhi T cell transferred mice; format: in vivo; conditions: sick mice after treatment, FIG. 11C
Method: The upper third of the large bowel from these mice were excised, and fixed in OCT. Slides from these tissues were prepared and fluorescently probed for MRP-2 expression. […] Thus, in the efflux pathway for hepoxilin A3, MRP-2 is in fact activated during the disease phase and suppressed upon baicalein treatment

Q: For `O=c1cc(-c2ccccc2)oc2cc(O)c(O)c(O)c12` [baicalein], which “PEEC secretion (bioactivity of apical supernatants)” value [1] is on record?
A: The value was “significant decrease in PEEC secretion; also recorded: dramatically reduced”.

Q: And the “hepoxilin A3 levels released” value [2]?
A: The value was “no detectable levels of hepoxilin A3”.

Q: What about the “histopathology / severity of intestinal inflammation” value [3] of the same compound?
A: Its value is “only minimal alterations detectable; also recorded: significantly reduced; also recorded: significantly less severe”.

Q: And the rectal prolapse ([4]; high dose 200 μM i.v. every other day, 2.5 weeks)?
A: Its rectal prolapse is “complete recovery of rectal prolapse”.

Q: What about the “health status and rectal prolapse” value ([4]; low dose 2 μM i.v. every other day, 2.5 weeks) of the same compound?
A: Its value is “no improvement of their health status and rectal prolapse”.

Q: And the “illness (rectal prolapse, diarrhea, weight loss)” value ([4]; therapeutic regimen, after 2 weeks)?
A: Its value is “resolved the illness”.

Q: And the “MRP-2 expression at apical surface of intestinal epithelium” value [5]?
A: The value was “completely suppressed”.
